Experimental data published in patent publication US20200207989A1, “FLUORESCENT PROBE FOR ALDH3A1 DETECTION” (The University of Tokyo, priority 2016, published 2020).

B1: ALDH1A1 (Homo sapiens) (protein)
chain: MSSSGTPDLPVLLTDLKIQYTKIFINNEWHDSVSGKKFPVFNPATEEELCQVEEGDKEDVDKAVKAARQAFQIGSPWRTMDASERGRLLYKLADLIERDRLLLATMESMNGGKLYSNAYLNDLAGCIKTLRYCAGWADKIQGRTIPIDGNFFTYTRHEPIGVCGQIIPWNFPLVMLIWKIGPALSCGNTVVVKPAEQTPLTALHVASLIKEAGFPPGVVNIVPGYGPTAGAAISSHMDIDKVAFTGSTEVGKLIKEAAGKSNLKRVTLELGGKSPCIVLADADLDNAVEFAHHGVFYHQGQCCIAASRIFVEESIYDEFVRRSVERAKKYILGNPLTPGVTQGPQIDKEQYDKILDLIESGKKEGAKLECGGGPWGNKGYFVQPTVFSNVTDEMRIAKEEIFGPVQQIMKFKSLDDVIKRANNTFYGLSAGVFTKDIDKAITISSALQAGTVWVNCYGVVSAQCPFGGFKMSGNGRELGEYGFHEYTEVKTVTVKISQKNS
notes: purchased

Legend:
ALDH1A1 [1] = target: T1, ALDH1A1 (Homo sapiens, UniProt P00352); test: Reactivity of probes to recombinant ALDH1A1 (UPLC/MS/MS detection of aldehyde and carboxylic acid forms); format: biochemical; details: 10-100 nM ALDH, 10-80 μM compound, Tris buffer pH 7.5, 30 minutes at 37° C., ◯/X not defined by a legend
T1 construct: purchased
T1 sequence (P00352 1-501): B1 chain
Description: (§1) Human recombinant ALDH1A1/1A3/3A1 was purchased, and 100 mM of KCL, 2 mM of DTT, 1 mM of NAD(P), 10-100 nM of each ALDH, and 10-80 μM of each compound were mixed in Tris buffer (100 mM, pH 7.5), reacted for 30 minutes at 37° C., an equal amount of acetonitrile added, and the reaction stopped. The reaction solution was analyzed by UPLC/MS/MS (Waters). The UPCL chromatogram was carried out over five minutes at a flow rate of 800 μL/min by a linear gradient from 5% acetonitrile 0.01 M ammonium formate/water to 95% acetonitrile 0.01 M ammonium formate/water. An aldehyde-form and carboxylic acid-form probe were detected by the absorbance at a wavelength of 504 nm, and m/z of the MS spectrum at each peak was confirmed to agree with the expected m/z.

ALDH3A1 [2] = target: T2, ALDH3A1 (Homo sapiens, UniProt P30838); test: Reactivity of probes to recombinant ALDH3A1 (UPLC/MS/MS); format: biochemical; details: 10-100 nM ALDH, 10-80 μM compound, Tris buffer pH 7.5, 30 minutes at 37° C., ◯/X not defined by a legend
T2 construct: purchased
T2 sequence (P30838 1-453): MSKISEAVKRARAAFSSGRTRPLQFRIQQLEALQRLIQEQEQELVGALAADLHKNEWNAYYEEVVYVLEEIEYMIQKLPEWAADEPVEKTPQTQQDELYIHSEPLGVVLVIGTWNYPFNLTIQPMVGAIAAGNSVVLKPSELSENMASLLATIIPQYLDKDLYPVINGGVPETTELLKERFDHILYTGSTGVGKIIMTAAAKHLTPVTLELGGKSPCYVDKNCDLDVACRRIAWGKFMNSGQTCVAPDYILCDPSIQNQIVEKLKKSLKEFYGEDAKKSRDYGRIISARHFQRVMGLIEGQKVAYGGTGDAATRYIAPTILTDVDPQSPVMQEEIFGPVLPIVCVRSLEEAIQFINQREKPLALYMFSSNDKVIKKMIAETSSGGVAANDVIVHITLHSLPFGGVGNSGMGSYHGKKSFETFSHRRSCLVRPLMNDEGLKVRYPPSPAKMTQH
Description: (§2) Human recombinant ALDH1A1/1A3/3A1 was purchased, and 100 mM of KCL, 2 mM of DTT, 1 mM of NAD(P), 10-100 nM of each ALDH, and 10-80 μM of each compound were mixed in Tris buffer (100 mM, pH 7.5), reacted for 30 minutes at 37° C., an equal amount of acetonitrile added, and the reaction stopped. The reaction solution was analyzed by UPLC/MS/MS (Waters). The UPCL chromatogram was carried out over five minutes at a flow rate of 800 μL/min by a linear gradient from 5% acetonitrile 0.01 M ammonium formate/water to 95% acetonitrile 0.01 M ammonium formate/water.

OE21 cell line = test: Cell imaging of OE21 cells against CB7 negative control; format: cell-based; details: probe 5: 40 μM, 90 minutes at 37° C., CB7 10 μM control
Description: 40 μM of probe 5 was added to culture medium (RPMI 1640, 10% FBS, 15 mM HEPES, phenol red-free). After culturing for 90 minutes at 37° C., the cells were washed using a chilled medium and examined under a confocal microscope. A sample with a specific ALDH3A1 inhibitor (1-[(4-fluorophenyl)sulfonyl]-2-methyl-1H-benzimidazole, CB7, 10 μM) added served as a negative control. Excitation was provided by a 488 nm laser, and observation was carried out at wavelengths of […] in detection.

[3] = HPLC (LC/MS) retention time as measure of hydrophilicity / membrane permeability; format: physicochemical; details: C18 column; 20% B 2.5 min, 20%-->100% B 5 min, 500 μL/min; neutral conditions; mean±SD of three tests
Description: In the present invention, it is preferable to use the retention time on an HPLC chromatogram as the measure of hydrophilicity.
HPLC conditions: taking solvent A to be 0.01 M ammonium formate/water and solvent B to be 80% acetonitrile 0.01 M ammonium formate/water, chromatography is carried out under conditions of 20% solvent B for 2.5 minutes followed by a 5-minute linear gradient of solvent B from 20% to 100% (flow rate 500 μL/min).
A C18 column (HP 3 μm, inner diameter: 2.1 mm, length: 150 mm, GL Science), for example, can be used suitably as the column.
The water solubility was verified by LC/MS under neutral conditions to compare the membrane permeability of the five probes produced above and ALDEFLUOR. The reaction was stopped after advancing the reaction to the point that each probe was present as both a carboxylic acid form and an aldehyde form using a suitable isoform and concentration of ALDH, and analysis was conducted by LC/MS (Agilent 1200/6130 quadrupole LC/MS system). A C18 column (HP 3 μm, inner diameter: 2.1 mm, length: 150 mm, GL Science) was used as the column. HPLC chromatograms were carried out by 20% B for 2.5 minutes followed by a five-minute linear gradient (flow rate: 500 μL/min) from 20% to 100% B, taking solvent A to be 0.01 M ammonium formate/water and solvent B to be 80% acetonitrile 0.01 M ammonium formate/water. The probe containing BODIPY was detected by the absorbance at a wavelength of 504 nm and the probe containing TG at a wavelength of 495 nm, and m/z of the MS spectrum at each peak was confirmed to agree with the expected m/z. Three independent tests were run, and the mean±SD was calculated. […] Given that imaging of probe 1 was not successful, there was thought to be a threshold at which the membrane permeability changes rapidly between this 6.741 minutes and 7.098 minutes (band in FIG. 2).

ALDH3A1 [4] = target: T2, ALDH3A1; test: Kinetic characteristics (Michaelis-Menten Km, Kcat) with ALDH3A1; format: biochemical
Description: as §1
(§3) For the reaction, 100 mM of KCL, 2 mM of DTT, 1 mM of NAD(P), and five to six concentrations within the range of 10-100 nM of each ALDH and 0.1-80 μM of each probe were selected, mixed in Tris buffer (100 mM, pH 7.5), and reacted for five minutes at 37° C.; an equal amount of acetonitrile was added, and the reaction was stopped. Detection of the aldehyde-form/carboxylic acid-form probes was carried out using the same method as described above by UPLC/MS/MS. Km and Kcat were calculated by fitting the reaction rate at each probe concentration obtained to the Michaelis-Menten equation. A Kaleida Graph ver. 4.1 (Hulinks, Inc.) was used in fitting.
The Kcat ratio (Kcat of ALDH3A1/Kcat of ALDH1A1) was calculated for probe 1, probe 3, and probe 5 as an indicator of ALDH1A1/ALDH3A1 specificity because the probe reaction rate at the actual probe use concentration is believed to be close to Vmax since Km is relatively small (Table 5).

ALDH1A1 [5] = target: T1, ALDH1A1; test: Kinetic characteristics (Michaelis-Menten Km, Kcat) with ALDH1A1; format: biochemical; details: five minutes at 37° C., Tris buffer pH 7.5
Description: as §1, §3

ALDH1A3 = target: T3, ALDH1A3 (Homo sapiens, UniProt P47895); test: Reactivity of probes to recombinant ALDH1A3 (UPLC/MS/MS); format: biochemical; details: 10-100 nM ALDH, 10-80 μM compound, Tris buffer pH 7.5, 30 minutes at 37° C.; ◯/X not defined by a legend
T3 construct: purchased
T3 sequence (P47895 1-512): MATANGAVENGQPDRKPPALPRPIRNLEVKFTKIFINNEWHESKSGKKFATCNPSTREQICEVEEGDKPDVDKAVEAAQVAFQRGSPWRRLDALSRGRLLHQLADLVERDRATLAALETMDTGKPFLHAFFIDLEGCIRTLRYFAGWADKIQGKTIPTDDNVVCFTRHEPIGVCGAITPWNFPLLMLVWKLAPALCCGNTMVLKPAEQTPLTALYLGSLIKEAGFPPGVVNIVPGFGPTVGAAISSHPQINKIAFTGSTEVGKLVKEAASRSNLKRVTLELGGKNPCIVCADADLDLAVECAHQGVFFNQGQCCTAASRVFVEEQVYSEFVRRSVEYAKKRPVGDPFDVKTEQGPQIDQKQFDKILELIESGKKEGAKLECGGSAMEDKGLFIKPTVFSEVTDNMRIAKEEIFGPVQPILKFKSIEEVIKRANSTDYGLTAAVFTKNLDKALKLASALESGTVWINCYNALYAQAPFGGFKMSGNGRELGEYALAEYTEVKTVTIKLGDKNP
Description: as §2

A549 cells = system: A549 cells
Text: An esophageal squamous cell carcinoma cell line (OE21 cell line) which are cells that express a high level of ALDH3A1 was used as the cells.

[6] = substrate: CCN(CCOCCNC(=O)c1ccc(-c2c3ccc(=O)cc-3oc3cc(O)ccc23)c(C)c1)c1ccc(C=O)cc1; test: Kinetic characteristics (Michaelis-Menten Km, Kcat) with ALDH1A1; format: biochemical, Human; details: other: five minutes at 37° C., Tris buffer pH 7.5
Description: as §1, §3

[7] = five minutes at 37° C., Tris buffer pH 7.5

| Molecule | Reactivity to ALDH1A1 (ALDH1A1 [1]) | Reactivity to ALDH1A1 (ALDH1A1 [1]; listed as compound 3) | Reactivity to ALDH3A1 (ALDH3A1 [2]) | Reactivity to ALDH3A1 (ALDH3A1 [2]; listed as compound 3) | Brightness of cells in imaging compared to negative control (CB7) (OE21 cell line) | Retention Time, Aldehyde form [3] | Retention Time, carboxylate (carboxylic acid form) [3] | Kcat ALDH3A1 (ALDH3A1 [4]; [7]) | Km (ALDH3A1 [4]; [7]) | Kcat ratio (Kcat of ALDH3A1/Kcat of ALDH1A1) (ALDH3A1 [4]; indicator of ALDH1A1/ALDH3A1 specificity) | Kcat ALDH1A1 (ALDH1A1 [5]) | Km (ALDH1A1 [5]) | Reactivity to ALDH1A1 (ALDH1A1 [1]; listed as compound 2) | Reactivity to ALDH1A3 (ALDH1A3) | Brightness of cells in imaging compared to negative control (A549 cells) | Km [6] | kcat [6] |
| --- | --- | --- | --- | --- | --- | --- | --- | --- | --- | --- | --- | --- | --- | --- | --- | --- | --- |
| 2-(N-ethyl-N-(4-formylphenyl)amino)ethyl-3-(1,3-dimethyl-4,4-difluoro-4-bora-3a,4a-diaza-s-indacen-5-yl)-propionamide [Probe 3] | ◯ | reacted with ALDH1A1 and ALDH3A1 | ◯ | reacted with ALDH1A1 and ALDH3A1 | no evident difference in brightness could be found in comparison to the negative control | 9.153 ± 0.010 min | 7.920 ± 0.052 min | 0.203 ± 0.0033 s⁻¹ | 0.87 ± 0.07 µM | 2 | 0.101 ± 0.00333 s⁻¹ | 0.17 ± 0.03 µM |  |  |  |  |  |
| N-(4-formylphenyl)-3-(1,3-dimethyl-4,4-difluoro-4-bora-3a,4a-diaza-s-indacen-5-yl)-propionamide [Probe 2] | ◯ |  | presented reactivity only with ALDH1A1 |  |  | 9.330 ± 0.002 min | 7.284 ± 0.047 min |  |  |  | 3.4 ± 0.415 s⁻¹ | 5.76 ± 2.39 µM | presented reactivity only with ALDH1A1 | presented reactivity only with ALDH1A1 | no evident difference in brightness was found in comparison to the negative control |  |  |
| B1 |  |  |  |  |  |  |  |  |  |  |  |  |  |  |  | 0.26 ± 0.05 µM | 0.017 ± 0.00067 s⁻¹ |
